According to ChEMBL document CHEMBL5608185, “Design, synthesis and evaluation of carbamate-bridged amino acid prodrugs of cycloicaritin with improved antitumor activity, aqueous solubility and phase II metabolic stability” (Eur J Med Chem, 2024):
Values after ≈ are worked out from the molar mass of the structure shown.

Experiments:
[1] = Stability in Sprague-Dawley rat blood homogenates assessed as half life at pH 7.4 by HPLC analysis; assay type: ADME, tissue-based
[2] = Drug uptake in human Caco-2 cells over 1 to 100 uM incubated for 10 mins by HPLC-MS/MS analysis; assay type: ADME, cell-based; conditions: caco-2, 10 min, dose 1-100 µM
[3] = Chemical stability of the compound in simulated intestinal fluid assessed as half life by HPLC analysis; assay type: ADME, physicochemical
[4] = Stability at phase II in rat liver microsomes assessed as half life at 10 uM measured every 10 mins for 70 mins by HPLC-UV analysis; assay type: ADME, Microsome
[5] = Octanol/water partition coefficient, logP of the compound incubated for 72 hrs by HPLC-MS/MS analysis; assay type: physicochemical
[6] = Aqueous solubility of the compound incubated for 72 hrs by shake-flask method; assay type: physicochemical; conditions: buffer
[7] = Chemical stability of the compound assessed as half life at pH 4.5 by HPLC analysis; assay type: physicochemical; conditions: buffer
[8] = Stability in rat liver microsomes assessed as parent compound remaining at 10 uM measured after 70 mins by HPLC-UV analysis; assay type: ADME, Microsome; conditions: read-out: Stability
[9] = Stability in Sprague-Dawley rat liver homogenates assessed as half life at pH 7.4 by HPLC analysis; assay type: ADME, tissue-based
[10] = Chemical stability of the compound assessed as half life at pH 1.2 by HPLC analysis; assay type: physicochemical; conditions: buffer
[11] = Chemical stability of the compound assessed as half life at pH 7.4 by HPLC analysis; assay type: physicochemical; conditions: buffer
[12] = Chemical stability of the compound assessed as half life at pH 6.8 by HPLC analysis; assay type: physicochemical; conditions: buffer
[13] = Chemical stability of the compound in simulated gastric fluid assessed as half life by HPLC analysis; assay type: ADME, physicochemical
[14] = Stability in Sprague-Dawley rat intestine homogenates assessed as half life at pH 7.4 by HPLC analysis; assay type: ADME, tissue-based
[15] = Drug uptake in human Caco-2 cells at 5 uM at pH 7.4 incubated for 10 mins by HPLC-MS/MS analysis; assay type: ADME, cell-based; conditions: caco-2, pH 7.4, 10 min
[16] = Drug uptake in human Caco-2 cells at 5 uM incubated for 10 mins in presence of Estrone-3-sulfate by HPLC-MS/MS analysis; assay type: ADME, cell-based; conditions: caco-2, 10 min
[17] = Drug uptake in human Caco-2 cells at 5 uM incubated for 10 mins in presence of fexofenadine by HPLC-MS/MS analysis; assay type: ADME, cell-based; conditions: caco-2, 10 min
[18] = Toxicity in BALB/c mouse assessed as effect on body weight at 35 to 150 mg/kg, po measured after 16 days; assay type: organism-based; conditions: in vivo, 384 h, dose 35-150 mg/kg, time 16 day
[19] = AUC (0 to t) in Sprague-Dawley rat at 20 mg/kg, po measured upto 12 hrs by HPLC-MS/MS analysis; assay type: ADME, organism-based; conditions: in vivo
[20] = Toxicity in BALB/c mouse assessed as effect on CREA level at 35 to 150 mg/kg, po measured after 16 days; assay type: organism-based; conditions: in vivo, 384 h, dose 35-150 mg/kg, time 16 day
[21] = Toxicity in BALB/c mouse assessed as effect on AST level at 35 to 150 mg/kg, po measured after 16 days; assay type: organism-based; conditions: in vivo, 384 h, dose 35-150 mg/kg, time 16 day
[22] = Cmax in male Sprague-Dawley rat at 20 mg/kg, po measured up to 12 hrs in presence of fexofenadine by HPLC-MS/MS analysis; assay type: ADME, organism-based; conditions: in vivo, with fexofenadine (dose not stated)
[23] = Drug uptake in human Caco-2 cells at 5 uM incubated for 10 mins in presence of glycyl-sarcosine by HPLC-MS/MS analysis; assay type: ADME, cell-based; conditions: caco-2, 10 min
[24] = Tmax in Sprague-Dawley rat at 20 mg/kg, po measured upto 12 hrs by HPLC-MS/MS analysis; assay type: ADME, organism-based; conditions: in vivo
[25] = Prodrug conversion in Sprague-Dawley rat assessed as Cmax of cycloicaritin metabolite at 20 mg/kg, po measured up to 12 hrs by HPLC-MS/MS analysis; assay type: ADME, organism-based; conditions: in vivo
[26] = AUC (0 to t) in male Sprague-Dawley rat at 20 mg/kg, po measured up to 12 hrs in presence of glycyl-sarcosine by HPLC-MS/MS analysis; assay type: ADME, organism-based; conditions: in vivo, with glycyl-sarcosine (dose not stated)
[27] = AUC (0 to t) in male Sprague-Dawley rat at 20 mg/kg, po measured up to 12 hrs in presence of fexofenadine by HPLC-MS/MS analysis; assay type: ADME, organism-based; conditions: in vivo, with fexofenadine (dose not stated)
[28] = Prodrug conversion in Sprague-Dawley rat assessed as Tmax of cycloicaritin metabolite at 20 mg/kg, po measured up to 12 hrs by HPLC-MS/MS analysis; assay type: ADME, organism-based; conditions: in vivo
HepG2 = assay: Cytotoxicity against human HepG2 cells assessed as reduction in cell viability incubated for 72 hrs by MTT assay; assay type: functional, cell-based
[29] = Prodrug conversion in Sprague-Dawley rat assessed as AUC (0 to t) of cycloicaritin metabolite at 20 mg/kg, po measured up to 12 hrs by HPLC-MS/MS analysis; assay type: ADME, organism-based; conditions: in vivo
[30] = Prodrug conversion in Sprague-Dawley rat assessed as half life of cycloicaritin metabolite at 20 mg/kg, po measured up to 12 hrs by HPLC-MS/MS analysis; assay type: ADME, organism-based; conditions: in vivo
[31] = Half life in Sprague-Dawley rat at 20 mg/kg, po measured upto 12 hrs by HPLC-MS/MS analysis; assay type: ADME, organism-based; conditions: in vivo
[32] = Toxicity in BALB/c mouse assessed as effect on BUN level at 35 to 150 mg/kg, po measured after 16 days; assay type: organism-based; conditions: in vivo, 384 h, dose 35-150 mg/kg, time 16 day
[33] = Cmax in male Sprague-Dawley rat at 20 mg/kg, po measured up to 12 hrs in presence of glycyl-sarcosine by HPLC-MS/MS analysis; assay type: ADME, organism-based; conditions: in vivo, with glycyl-sarcosine (dose not stated)
4T1 [34] = assay: Cytotoxicity against mouse 4T1 cells assessed as reduction in cell viability incubated for 72 hrs by MTT assay; assay type: functional, cell-based
[35] = Cytotoxicity against mouse 3T3 cells assessed as reduction in cell viability incubated for 72 hrs by MTT assay; assay type: toxicity, cell-based; conditions: NIH3T3 cells
[36] = Drug uptake in human Caco-2 cells at 5 uM at pH 6.0 incubated for 10 mins by HPLC-MS/MS analysis; assay type: ADME, cell-based; conditions: caco-2, pH 6, 10 min
[37] = Cmax in Sprague-Dawley rat at 20 mg/kg, po measured upto 12 hrs by HPLC-MS/MS analysis; assay type: ADME, organism-based; conditions: in vivo
4T1 [38] = assay: Antitumor activity against mouse 4T1 cells xenografted in BALB/c mouse model assessed as reduction in tumor growth administered once daily via oral gavage and measured every two days for 16 days; assay type: functional, cell-based; conditions: dose 35-150 mg/kg, time 16.0 day
[39] = Toxicity in BALB/c mouse assessed as effect on ALT level at 35 to 150 mg/kg, po measured after 16 days; assay type: organism-based; conditions: in vivo, 384 h, dose 35-150 mg/kg, time 16 day
[40] = Drug uptake in human Caco-2 cells over 0.5 to 50 uM incubated for 10 mins by HPLC-MS/MS analysis; assay type: ADME, cell-based; conditions: caco-2, 10 min, dose 0.5-50 µM
[41] = Selectivity ratio of cytotoxicity against human HepG2 cells to cytotoxicity against mouse 4T1 cells
[42] = Drug metabolism in rat liver microsomes at 10 uM measured upto 70 mins by HPLC-UV analysis; assay type: ADME, Microsome; conditions: 1.167 h

Row | half-life [1] [h] | Drug uptake [2] | half-life [3] [h] | half-life at 10 µM [4] [h] | logP at 72 h [5] | solubility thermodynamic at 72 h [6] [µM] | half-life [7] [h] | remaining at 1.167 h, 10 µM [8] [%] | half-life [9] [h] | half-life [10] [h] | half-life [11] [h] | half-life [12] [h] | half-life [13] [h] | half-life [14] [h] | Drug uptake [15] | Drug uptake [16] | Drug uptake [17] | Drug uptake [23] | Structure (SMILES) | Activity (HepG2) | Activity (4T1 [34]) | other results
1 | 0.45 | Not Active | > 12 | > 1.16 | 4.33 | 2.68 (≈ 1.5 µg/mL) | > 12 | 76 | 6.04 | > 12 | 6.09 | > 12 | > 12 | 5.85 |  |  |  |  | COc1ccc(-c2oc3c4c(cc(O)c3c(=O)c2OC(=O)N[C@@H](Cc2ccccc2)C(=O)O)OC(C)(C)CC4)cc1 |  |  | 
2 | 0.36 | Not Active | > 12 | > 1.16 | 2.69 | 11.4 (≈ 6.01 µg/mL) | > 12 | 76 | 4.62 | > 12 | 4.97 | > 12 | > 12 | 4.71 | Not Active | Not Active | Not Active |  | CC[C@H](C)[C@H](NC(=O)Oc1c(-c2ccc(OC)cc2)oc2c3c(cc(O)c2c1=O)OC(C)(C)CC3)C(=O)O |  |  | 
3 | 0.5 | Not Active | > 12 | > 1.16 | 3.42 | 13 (≈ 6.84 µg/mL) | > 12 | 76 | 8.6 | > 12 | > 12 | > 12 | > 12 | 8.67 | Not Active | Not Active | Not Active | Active | COc1ccc(-c2oc3c4c(cc(O)c3c(=O)c2OC(=O)N[C@@H](CC(C)C)C(=O)O)OC(C)(C)CC4)cc1 | Dose-Dependent Effect | Dose-Dependent Effect | Activity [18]: Non-Toxic; AUC(0-t) at 12 h [19]: 0.463 µM·h; Activity [20]: Non-Toxic; Activity [21]: Non-Toxic; Cmax [22]: 47.4 nM; Tmax [24]: 1 h; Cmax [25]: 66.6 nM; AUC(0-t) at 12 h [26]: 0.812 µM·h; AUC(0-t) at 12 h [27]: 0.303 µM·h; Tmax [28]: 0.9 h; AUCt [29]: 0.1587 µM·h; t1/2 [30]: 6.96 h; half-life [31]: 5.34 h; Activity [32]: Non-Toxic; Cmax [33]: 204 nM; IC50 at 72 h [35]: > 100 µM; Drug uptake [36]: Active; Cmax [37]: 156 nM; Activity (4T1 [38]): Dose-Dependent Effect; Activity [39]: Non-Toxic
4 | > 12 |  | > 12 | 0.62 | 3.8 | 0.81 (≈ 0.298 µg/mL) | > 12 | 27 | > 12 | > 12 | > 12 | > 12 | > 12 | > 12 | Active | Active | Active | Active | COc1ccc(-c2oc3c4c(cc(O)c3c(=O)c2O)OC(C)(C)CC4)cc1 | Dose-Dependent Effect | Dose-Dependent Effect | Drug uptake [40]: Active; Selectivity ratio [41]: 1.8; Drug metabolism [42]: Metabolite_Detected; IC50 at 72 h [35]: > 50 µM; Drug uptake [36]: Active
